“Also recorded” adds a separate entry of the source.
Legend:
[1] = system: HEK293T d2GFP reporter line; assay: GFP disruption assay; type: cell-based, human; conditions: for gene editing activity / efficiency (GFP reporter disruption): HEK293T GFP reporter cell line
Text: GFP disruption assay. HEK293T cells were first lentivirally transduced with a destabilized GFP (d2GFP) reporter (derived from Addgene #14760). The resulting HEK293T d2GFP reporter line was then transiently transfected with indicated AsCas12a vector and a vector expressing GFP-targeting crRNA. This d2GFP HEK293T reporter line was used to evaluate the knockout efficiency of seven Addgene-available Cas12a systems (Butyrivibrio sp., Thiomicrospira sp. XS5, Moraxella bovoculi, Prevotella bryantii, Bacteroidetes oral, Lachnospiraceae bacterium, and Acidaminococcus). In addition, AsCas12a vector contained 1, 2, 4, or 6 SV40 or c-Myc NLS cloned into either the N- or C-terminus. The crRNA vector contained an expression marker for mCherry for successful transfection tracking. Cells were cultured for 3 days and subjected to flow cytometry to measure knockdown of GFP using the Guava Easycyte 10 HT instrument (Millipore). Percent GFP disruption is plotted. Two independent GFP-targeting crRNA are presented.

K562 cells = assay: Competition-based cellular proliferation assay; type: cell-based
Text: Competition-based cellular proliferation assays. Indicated AsCas12a-expressing cell lines were infected with a lentivirus (pRG212) encoding crRNA, targeting essential genes or known cancer dependencies, linked to a GFP reporter, to track successful transduction, at a multiplicity of infection (MOI) of around 0.2-0.5. The percentage of crRNA-positive (GFP-positive) cell population was monitored over time using the Guava Easycyte 10 HT instrument (Millipore). To assess the impact of a specific single-crRNA or dual-crRNA on cellular proliferation, final time point GFP % was divided by initial time point GFP % to calculate the negative selection fold-change of the crRNA-positive cell population.
To address the low knockout efficiency in mammalian cells, the AsCas12a system was subjected to three levels of optimization. In order to evaluate the knockout efficiency of the system, AsCas12a and its crRNA were expressed using a two-vector lentiviral expression strategy and conducted a competition-based cellular proliferation assay, a reliable proxy for dropout screening (FIG. 1A, 1B). crRNAs targeting known essential genes were designed, including replication protein PCNA and cyclin-dependent kinase CDK1. AsCas12a knockout efficiency was then assessed by measuring the negative selection strength of essential gene-targeting crRNAs in a 16-day time-course. […]

AsCas12a: Acidaminococcus Cas12a, wild type RNA-programmable DNA endonuclease
gene editing activity / efficiency (GFP reporter disruption) [1]: high gene editing activity
knockout efficiency relative to SpCas9 ([1]; in human cells): approximately one third

enAsCas12a: AsCas12a with E174R and S542R mutations, used with 6xNLS and dual-DR crRNA; the improved/engineered Cas12a system
gene editing activity / efficiency (GFP reporter disruption) [1]: comparable to Cas9
knockout efficiency (K562 cells; crRNAs targeting essential genes PCNA and CDK1, 16-day time-course): enhances knockout efficiency
effect on cellular proliferation (toxicity to the cells) (K562 cells; non-targeting crRNAs and crRNAs targeting introns of PCNA and CDK1): no obvious effect on cellular proliferation; also recorded: does not significantly affect cellular proliferation

— US20230002756A1, “High Performance Platform for Combinatorial Genetic Screening” (THE TRUSTEES OF THE UNIVERSITY OF PENNSYLVANIA, priority 2019, published 2023)
